Literature values in publication PMC10846240, “Pharmacokinetic/pharmacodynamic integration of amphenmulin: a novel pleuromutilin derivative against Mycoplasma gallisepticum” (Microbiology Spectrum, 2023).
In brackets after ≈: the same amount, converted by molar mass.

How the values were obtained:
Staphylococcus aureus = test system: Staphylococcus aureus; design: method as in PMID 30019769; conditions: neutropenic murine thigh and lung infection model; cited from earlier work
Streptococcus pneumoniae = test system: Streptococcus pneumoniae; design: method as in PMID 30019769; conditions: neutropenic murine thigh and lung infection model; cited from earlier work
[1] = design: method as in PMID 26747098; conditions: after intravenous injection; cited from earlier work
M. gallisepticum = test system: M. gallisepticum; design: method as in PMID 27656647, PMID 25845865; conditions: intratracheal infection model; cited from earlier work
[2] = test system: M. gallisepticum S6 strain; design: method as in PMID 27656647; conditions: same strain (S6); cited from earlier work

Row | Compound | character of activity (Staphylococcus aureus) | character of activity (Streptococcus pneumoniae) | free drug concentration in pulmonary epithelial lining fluid relative to plasma [1] [times] | optimized therapeutic dosages (M. gallisepticum) [mg/kg] | parameter most relevant to anti-mycoplasma effect (M. gallisepticum) | MIC [2] [µg/mL]
1 | C=C[C@]1(C)C[C@@H](OC(=O)CS[C@@H]2CC[C@@H](N)C[C@H]2O)[C@]2(C)[C@H](C)CC[C@]3(CCC(=O)[C@H]32)[C@@H](C)[C@@H]1O [lefamulin] | time- and concentration-dependent activity | time- and concentration-dependent activity | 5.7 |  |  | 
2 | C=C[C@]1(C)C[C@@H](OC(=O)CSCCN(CC)CC)[C@]2(C)[C@H](C)CC[C@]3(CCC(=O)[C@H]32)[C@@H](C)[C@@H]1O [tiamulin] |  |  |  | 45 | AUC/MIC | 0.03 (≈ 0.0608 µM)
3 | C=C[C@]1(C)C[C@@H](OC(=O)CSC(C)(C)CNC(=O)[C@H](N)C(C)C)[C@]2(C)[C@H](C)CC[C@]3(CCC(=O)[C@H]32)[C@@H](C)[C@@H]1O [valnemulin] |  |  |  | 6.5 | AUC/MIC | 
